Settings: Liquid, Vibrating tube method

c1ccsc1 [thiophene]
Settings	mass density [kg/m3]
283.15 K, 100 kPa	1076.4
283.15 K, 2000 kPa	1077.94
283.15 K, 5000 kPa	1080.27
283.15 K, 7000 kPa	1081.81
283.15 K, 10000 kPa	1084.09
283.15 K, 15000 kPa	1087.78
283.15 K, 20000 kPa	1091.37
283.15 K, 25000 kPa	1094.82
283.15 K, 30000 kPa	1098.18
283.15 K, 35000 kPa	1101.44
283.15 K, 40000 kPa	1104.61
283.15 K, 45000 kPa	1107.7
283.15 K, 50000 kPa	1110.71
283.15 K, 55000 kPa	1113.62
283.15 K, 60000 kPa	1116.47
283.15 K, 65000 kPa	1119.27
288.15 K, 100 kPa	1070.54
288.15 K, 2000 kPa	1072.11
288.15 K, 5000 kPa	1074.53
288.15 K, 7000 kPa	1076.12
288.15 K, 10000 kPa	1078.46
288.15 K, 15000 kPa	1082.24
288.15 K, 20000 kPa	1085.9
288.15 K, 25000 kPa	1089.45
288.15 K, 30000 kPa	1092.91
288.15 K, 35000 kPa	1096.24
288.15 K, 40000 kPa	1099.5
288.15 K, 45000 kPa	1102.65
288.15 K, 50000 kPa	1105.72
288.15 K, 55000 kPa	1108.7
288.15 K, 60000 kPa	1111.61
288.15 K, 65000 kPa	1114.44
293.15 K, 100 kPa	1064.59
293.15 K, 2000 kPa	1066.21
293.15 K, 5000 kPa	1068.67
293.15 K, 7000 kPa	1070.33
293.15 K, 10000 kPa	1072.75
293.15 K, 15000 kPa	1076.63
293.15 K, 20000 kPa	1080.39
293.15 K, 25000 kPa	1084.05
293.15 K, 30000 kPa	1087.58
293.15 K, 35000 kPa	1091.01
293.15 K, 40000 kPa	1094.34
293.15 K, 45000 kPa	1097.57
293.15 K, 50000 kPa	1100.7
293.15 K, 55000 kPa	1103.77
293.15 K, 60000 kPa	1106.72
293.15 K, 65000 kPa	1109.63
298.15 K, 100 kPa	1058.65
298.15 K, 2000 kPa	1060.32
298.15 K, 5000 kPa	1062.91
298.15 K, 7000 kPa	1064.57
298.15 K, 10000 kPa	1067.05
298.15 K, 15000 kPa	1071.07
298.15 K, 20000 kPa	1074.94
298.15 K, 25000 kPa	1078.69
298.15 K, 30000 kPa	1082.3
298.15 K, 35000 kPa	1085.81
298.15 K, 40000 kPa	1089.21
298.15 K, 45000 kPa	1092.53
298.15 K, 50000 kPa	1095.73
298.15 K, 55000 kPa	1098.86
298.15 K, 60000 kPa	1101.89
298.15 K, 65000 kPa	1104.85
303.15 K, 100 kPa	1052.71
303.15 K, 2000 kPa	1054.43
303.15 K, 5000 kPa	1057.07
303.15 K, 7000 kPa	1058.82
303.15 K, 10000 kPa	1061.36
303.15 K, 15000 kPa	1065.48
303.15 K, 20000 kPa	1069.46
303.15 K, 25000 kPa	1073.3
303.15 K, 30000 kPa	1077.03
303.15 K, 35000 kPa	1080.62
303.15 K, 40000 kPa	1084.1
303.15 K, 45000 kPa	1087.49
303.15 K, 50000 kPa	1090.79
303.15 K, 55000 kPa	1093.96
303.15 K, 60000 kPa	1097.06
303.15 K, 65000 kPa	1100.09
308.15 K, 100 kPa	1046.7
308.15 K, 2000 kPa	1048.48
308.15 K, 5000 kPa	1051.21
308.15 K, 7000 kPa	1052.99
308.15 K, 10000 kPa	1055.61
308.15 K, 15000 kPa	1059.87
308.15 K, 20000 kPa	1063.97
308.15 K, 25000 kPa	1067.92
308.15 K, 30000 kPa	1071.73
308.15 K, 35000 kPa	1075.4
308.15 K, 40000 kPa	1078.99
308.15 K, 45000 kPa	1082.45
308.15 K, 50000 kPa	1085.8
308.15 K, 55000 kPa	1089.07
308.15 K, 60000 kPa	1092.23
308.15 K, 65000 kPa	1095.31
313.15 K, 100 kPa	1040.68
313.15 K, 2000 kPa	1042.52
313.15 K, 5000 kPa	1045.35
313.15 K, 7000 kPa	1047.19
313.15 K, 10000 kPa	1049.91
313.15 K, 15000 kPa	1054.25
313.15 K, 20000 kPa	1058.47
313.15 K, 25000 kPa	1062.52
313.15 K, 30000 kPa	1066.43
313.15 K, 35000 kPa	1070.21
313.15 K, 40000 kPa	1073.88
313.15 K, 45000 kPa	1077.41
313.15 K, 50000 kPa	1080.86
313.15 K, 55000 kPa	1084.2
313.15 K, 60000 kPa	1087.42
313.15 K, 65000 kPa	1090.59
318.15 K, 100 kPa	1034.64
318.15 K, 2000 kPa	1036.54
318.15 K, 5000 kPa	1039.44
318.15 K, 7000 kPa	1041.36
318.15 K, 10000 kPa	1044.15
318.15 K, 15000 kPa	1048.65
318.15 K, 20000 kPa	1052.97
318.15 K, 25000 kPa	1057.12
318.15 K, 30000 kPa	1061.15
318.15 K, 35000 kPa	1065.02
318.15 K, 40000 kPa	1068.77
318.15 K, 45000 kPa	1072.41
318.15 K, 50000 kPa	1075.92
318.15 K, 55000 kPa	1079.33
318.15 K, 60000 kPa	1082.65
318.15 K, 65000 kPa	1085.87
323.15 K, 100 kPa	1028.59
323.15 K, 2000 kPa	1030.52
323.15 K, 5000 kPa	1033.54
323.15 K, 7000 kPa	1035.52
323.15 K, 10000 kPa	1038.37
323.15 K, 15000 kPa	1042.99
323.15 K, 20000 kPa	1047.45
323.15 K, 25000 kPa	1051.73
323.15 K, 30000 kPa	1055.85
323.15 K, 35000 kPa	1059.82
323.15 K, 40000 kPa	1063.67
323.15 K, 45000 kPa	1067.38
323.15 K, 50000 kPa	1070.98
323.15 K, 55000 kPa	1074.48
323.15 K, 60000 kPa	1077.86
323.15 K, 65000 kPa	1081.13
328.15 K, 100 kPa	1022.43
328.15 K, 2000 kPa	1024.49
328.15 K, 5000 kPa	1027.57
328.15 K, 7000 kPa	1029.6
328.15 K, 10000 kPa	1032.58
328.15 K, 15000 kPa	1037.33
328.15 K, 20000 kPa	1041.91
328.15 K, 25000 kPa	1046.31
328.15 K, 30000 kPa	1050.54
328.15 K, 35000 kPa	1054.61
328.15 K, 40000 kPa	1058.55
328.15 K, 45000 kPa	1062.36
328.15 K, 50000 kPa	1066.05
328.15 K, 55000 kPa	1069.6
328.15 K, 60000 kPa	1073.07
328.15 K, 65000 kPa	1076.42
333.15 K, 100 kPa	1016.27
333.15 K, 2000 kPa	1018.35
333.15 K, 5000 kPa	1021.56
333.15 K, 7000 kPa	1023.65
333.15 K, 10000 kPa	1026.72
333.15 K, 15000 kPa	1031.63
333.15 K, 20000 kPa	1036.34
333.15 K, 25000 kPa	1040.87
333.15 K, 30000 kPa	1045.21
333.15 K, 35000 kPa	1049.39
333.15 K, 40000 kPa	1053.43
333.15 K, 45000 kPa	1057.32
333.15 K, 50000 kPa	1061.09
333.15 K, 55000 kPa	1064.72
333.15 K, 60000 kPa	1068.26
333.15 K, 65000 kPa	1071.7
338.15 K, 100 kPa	1010.08
338.15 K, 2000 kPa	1012.22
338.15 K, 5000 kPa	1015.53
338.15 K, 7000 kPa	1017.69
338.15 K, 10000 kPa	1020.86
338.15 K, 15000 kPa	1025.92
338.15 K, 20000 kPa	1030.78
338.15 K, 25000 kPa	1035.41
338.15 K, 30000 kPa	1039.88
338.15 K, 35000 kPa	1044.17
338.15 K, 40000 kPa	1048.31
338.15 K, 45000 kPa	1052.28
338.15 K, 50000 kPa	1056.13
338.15 K, 55000 kPa	1059.87
338.15 K, 60000 kPa	1063.48
338.15 K, 65000 kPa	1066.99
